# Assay results published in patent US4146622A, “Aziridinyl quinone anti-transplanted tumor agents” (priority 1977, dated 1979).
# Where “and” joins values, the source holds several entries; their conditions need not be identical. Identical values can stand only once. Entries after “also recorded” stand apart in the source; their conditions may differ. Like-named read-outs stand apart in the source and are kept apart here.
# Assays:
# [1] = test system: P388 lymphocytic leukemia; assay: Intraperitoneal (IP) lymphocytic leukemia P388 transplanted mouse tumor test; format: in vivo, murine; settings: Table IX; for ILS (percentage increase in life span): IP P388, QD1-9, at OD; for OD (optimum dose): IP P388, QD1-9
# Description: ^b Ip tumor implantation, ip QD1-9 treatment schedule.
# The L1210, P388 and B16 test systems described in Table II utilize intraperitoneal (IP) tumor implantation and IP drug treatment while the Lewis lung system employs subcutaneous tumor implantation and IP treatment.
# Aqueous saline solution (0.9%) was used as the drug vehicle. Normally, five doses were employed per experiment with the top dose chosen to produce toxicity. The lower doses were 50% of each preceeding dose.
# Consistent with NCI antitumor test protocols, intraperitoneal (IP) administration of the drug was employed with all five tumor systems investigated. Tumor implantation was IP in the systems designated IP leukemia L1210 and P388 as well as B16 melanoma.
# [2] = test system: lymphoid leukemia L1210; assay: Intraperitoneal (IP) lymphoid leukemia L1210 transplanted mouse tumor test; format: in vivo, murine; settings: for OD (optimum dose) / ILS (percentage increase in life span) / T - C (average weight change of test group minus control) / animals alive per 6 test animals on day of termination: Table VIII; for T - C (average weight change of test group minus control): day 5; for animals alive per 6 test animals on day of termination / survivors (number in parentheses) IP L1210: day 30; for ILS (%) IP L1210 / survivors (number in parentheses) IP L1210: Table XI; for ILS (%) IP L1210: outstanding activity; for survivors (number in parentheses) IP L1210: per 6 test animals
# Description: ^(a) Day 1-9 treatment schedule (9 injections)
# ^(b) Day 1,5,9 treatment schedule (3 injections)
# ^(c) Day 1 only treatment schedule (1 injection)
# ^(f) Percentage increase in life span of treated animals [(treated
# survival .div. control survival) × 100%] - 100%
# [3] = test system: lymphoid leukemia L1210; assay: Intracerebral (IC) lymphoid leukemia L1210 test; format: in vivo, murine; settings: for OD (optimum dose) / ILS (percentage increase in life span): Table X
# Description: ^b Ic tumor implantation, ip QD1-9 treatment schedule.
# The L1210, P388 and B16 test systems described in Table II utilize intraperitoneal (IP) tumor implantation and IP drug treatment while the Lewis lung system employs subcutaneous tumor implantation and IP treatment. All three CNS tumor models (Table III) use intracerebral (IC) tumor implantation and IP treatment.
# Consistent with NCI antitumor test protocols, intraperitoneal (IP) administration of the drug was employed with all five tumor systems investigated. Tumor implantation was IP in the systems designated IP leukemia L1210 and P388 as well as B16 melanoma. Intracerebral (IC) tumor implantation was utilized in the IC L1210 and ependymoblastoma tumor systems.
# [4] = test system: ependymoblastoma; assay: Intracerebral (IC) ependymoblastoma (EM) brain tumor test; format: in vivo, murine; settings: for antitumor activity: IC ependymoblastoma (EM); for OD (optimum dose) / ILS (percentage increase in life span) / animals alive per 6 test animals on day of termination: Table X, IC ependymoblastoma; for OD (optimum dose): QD1-5; for ILS (percentage increase in life span) / animals alive per 6 test animals on day of termination: QD1-5, at OD; for animals alive per 6 test animals on day of termination / survivors (number in parentheses) EM: day 60; for survivors (number in parentheses) EM: Table XI, per 6 test animals
# Description: ^c Ic tumor implantation, ip QD1-5 treatment schedule.
# ^g Number of animals alive per six test animals on day of termination
# of experiment (day 99 for expt 133 and day 60 for expt 136 and 144).
# A third IC transplanted mouse tumor model, the ependymoblastoma system, was also studied. This system requires intracerebral implantation of a solid tumor fragment while the IC L1210 and IC P388 systems utilize IC inoculated ascites tumor fluid. All three use IP drug treatment however. […] Cures (survivors from the group of six mice on the last day of the experiment) are indicated. Experiments 136 and 144 were terminated on day 60. Since the number of cures was about the same, the differences in T/C values in these two experiments reflect differences in the life span of the two different sets of control animals. Experiment 133 was terminated on day 99 with a resulting higher activity value.
# The hydrophilic dihydroxypropylamino compound (No. 39), which was curative in the IP L1210 and P388 leukemia systems, was active but gave a large spread in ILS values (53-186%). […] Again, its hydrophilic character may present transport problems in this IC tumor system.
# [5] = Room temperature water solubility; format: physicochemical
# Protocol: In the following examples, all melting points are uncorrected and were recorded on a Thomas-Hoover capillary melting point apparatus. Elemental analyses were performed by NIAMDD, NIH, Bethesda, Maryland. Fluoranil, ethyleneimine and 2l -methylethyleneimine were obtained commerically. […] New compounds were identified by nmr and ir spectroscopy. In the tetraamino derivatives, the methylene protons of the aziridine rings usually occurred as a singlet at δ2.0-2.2 in CDCl3 or DMSO-d6. This absorption appeared at δ2.40 (CDCl3) for compound 11. Carbonyl absorption frequencies (nujol mull) occurred in the range 1620-1640 cm^-1 for the tetraamino compounds. Satisfactory elemental analyses (+0.4% of calculated values) are indicated by elemental symbols in Table VII. Room temperature water solubilities were determined by the incremental addition (pipet) of water to a weighed amount of compound with shaking. The solubility values in Table VII must be considered as approximate.
# [6] = test system: B16 melanocarcinoma; assay: Intraperitoneal B16 melanocarcinoma transplanted mouse tumor test; format: in vivo, murine; settings: for OD (optimum dose) / ILS (percentage increase in life span): Table IX; for OD (optimum dose): B16, QD1-9; for ILS (percentage increase in life span): B16, QD1-9, at OD
# [7] = Octanol/H2O partition coefficient (log P); format: physicochemical; settings: Table VII, octanol/H2O
# Description: ^(b) Octanol/H2 O values determined by C. Hansch and M. Yamakawa
# [8] = test system: lymphoid leukemia L1210; settings: cited from earlier work
# [9] = IP L1210, Day 1 only (1 injection)
# [10] = IP L1210, Q4D(1,5,9) (3 injections)
# [11] = water, Table VII, room temperature, approximate, read-out: Approx. H2O Sol.
smiles,measurement,setting,value
"CCNC1=C(N2CC2)C(=O)C(NCC)=C(N2CC2)C1=O [Compound 35, 2,5-Diaziridinyl-3,6-bis(ethylamino)-1,4-benzoquinone]",ILS (percentage increase in life span),[1],160% and 103%
same,antitumor activity,"[2]; IP L1210, tetraaminobenzoquinone series (Table VIII)",activity appears to peak
same,OD (optimum dose),[2]; [9],1.5 mg/kg/injection
same,ILS (percentage increase in life span),"[2]; IP L1210, Day 1 only, at OD",68% and 54%
same,OD (optimum dose),[2]; [10],3.0 mg/kg/injection and 1.5 mg/kg/injection
same,ILS (percentage increase in life span),"[2]; IP L1210, Q4D(1,5,9), at OD",75% and 57%
same,OD (optimum dose),"[2]; IP L1210, QD1-9 (9 injections)",1.5 mg/kg/injection
same,ILS (percentage increase in life span),"[2]; IP L1210, QD1-9, at OD",112% and 91%
same,T - C (average weight change of test group minus control),"[2]; IP L1210, QD1-9, at OD",-3.3 grams
same,animals alive per 6 test animals on day of termination,"[2]; IP L1210, QD1-9, at OD",2 and 1
same,ILS (%) IP L1210,[2],112%
same,survivors (number in parentheses) IP L1210,[2],2
same,OD (optimum dose),"[3]; IC L1210, QD1-9",3.0 mg/kg/injection
same,ILS (percentage increase in life span),"[3]; IC L1210, QD1-9, at OD",44% and 40%
same,antitumor activity,[4],most active
same,OD (optimum dose),[4],1.5 mg/kg/injection
same,ILS (percentage increase in life span),[4],218% and 187%
same,animals alive per 6 test animals on day of termination,[4],2
same,survivors (number in parentheses) EM,[4],2
same,solubility,[5]; [11],500 µg/mL
same,OD (optimum dose),[6],0.4 mg/kg/injection and 0.7 mg/kg/injection
same,ILS (percentage increase in life span),[6],26% and 24%
NC(=O)CNC1=C(N2CC2)C(=O)C(NCC(N)=O)=C(N2CC2)C1=O [Compound 40],OD (optimum dose),[1],2.0 mg/kg/injection
same,ILS (percentage increase in life span),[1],85% and 71%
same,OD (optimum dose),[2]; [9],10.0 mg/kg/injection
same,ILS (percentage increase in life span),"[2]; IP L1210, Day 1 only, at OD",21% and 15%
same,OD (optimum dose),[2]; [10],8.0 mg/kg/injection
same,OD (optimum dose),"[2]; IP L1210, QD1-9 (9 injections)",10.0 mg/kg/injection
same,ILS (percentage increase in life span),"[2]; IP L1210, QD1-9, at OD",92% and 91%
same,ILS (percentage increase in life span),"[3]; IC L1210, QD1-9, at OD",16%
same,OD (optimum dose),[4],2.0 mg/kg/injection and 1.0 mg/kg/injection
same,ILS (percentage increase in life span),[4],64% and 50%
same,solubility,[5]; [11],500 µg/mL
same,ILS (percentage increase in life span),[6],37% and 22%
"CN(C)C1=C(N2CC2)C(=O)C(N(C)C)=C(N2CC2)C1=O [Compound 41, 2,5-Diaziridinyl-3,6-bis(dimethylamino)-1,4-benzoquinone]",OD (optimum dose),[1],1.0 mg/kg/injection and 0.5 mg/kg/injection
same,ILS (percentage increase in life span),[1],74% and 37%
same,OD (optimum dose),[2]; [9],1.5 mg/kg/injection
same,ILS (percentage increase in life span),"[2]; IP L1210, Day 1 only, at OD",21% and 15%
same,OD (optimum dose),[2]; [10],3.0 mg/kg/injection
same,ILS (percentage increase in life span),"[2]; IP L1210, Q4D(1,5,9), at OD",120% and 73%
same,animals alive per 6 test animals on day of termination,"[2]; IP L1210, Q4D(1,5,9), at OD",1
same,ILS (%) IP L1210,[2],120%
same,survivors (number in parentheses) IP L1210,[2],1
same,antitumor activity,[3]; IC L1210,most active; also recorded: significant activity
same,OD (optimum dose),"[3]; IC L1210, Q4D(1,5,9)",3.0 mg/kg/injection
same,ILS (percentage increase in life span),"[3]; IC L1210, Q4D(1,5,9), at OD",72% and 56%
same,ILS (%) IC L1210,"[3]; Table XI, outstanding activity",72%
same,antitumor activity,[4],among the most active materials
same,OD (optimum dose),[4],1.0 mg/kg/injection and 0.5 mg/kg/injection
same,ILS (percentage increase in life span),[4],215% and 190%
same,animals alive per 6 test animals on day of termination,[4],5 and 4
same,survivors (number in parentheses) EM,[4],5
same,solubility,[5],increases the solubility greatly
same,solubility,[5]; [11],10000 µg/mL
same,OD (optimum dose),[6],0.2 mg/kg/injection
same,ILS (percentage increase in life span),[6],16% and 12%
CN(CCO)C1=C(N2CC2)C(=O)C(N(C)CCO)=C(N2CC2)C1=O [Compound 42],OD (optimum dose),[1],1.6 mg/kg/injection and 0.8 mg/kg/injection
same,ILS (percentage increase in life span),[1],162% and 145%
same,OD (optimum dose),[2]; [10],0.4 mg/kg/injection and 0.2 mg/kg/injection
same,OD (optimum dose),"[2]; IP L1210, QD1-9 (9 injections)",1.5 mg/kg/injection
same,animals alive per 6 test animals on day of termination,"[2]; IP L1210, QD1-9, at OD",1
same,ILS (%) IP L1210,[2],114%
same,survivors (number in parentheses) IP L1210,[2],1
same,logP,[7]; octanol/water,-0.38
same,OD (optimum dose),"[3]; IC L1210, QD1-9",4.0 mg/kg/injection and 2.0 mg/kg/injection
same,ILS (percentage increase in life span),"[3]; IC L1210, QD1-9, at OD",45% and 32%
same,OD (optimum dose),[4],0.4 mg/kg/injection and 0.2 mg/kg/injection
same,ILS (percentage increase in life span),[4],84% and 69%
same,solubility,[5]; [11],60000 µg/mL
same,antitumor activity,[6]; B16 melanoma,approached minimal reproducible activity
same,OD (optimum dose),[6],0.8 mg/kg/injection
same,ILS (percentage increase in life span),[6],47% and 31%
"O=C1C(N2CCOCC2)=C(N2CC2)C(=O)C(N2CCOCC2)=C1N1CC1 [Compound 46, 2,5-Diaziridinyl-3,6-dimorpholino-1,4-benzoquinone]",OD (optimum dose),[1],0.5 mg/kg/injection and 0.7 mg/kg/injection
same,ILS (percentage increase in life span),[1],52% and 48%
same,OD (optimum dose),[2]; [10],6.0 mg/kg/injection
same,T - C (average weight change of test group minus control),"[2]; IP L1210, Q4D(1,5,9), at OD",-2.6 grams
same,log P,[7],0.52
same,ILS (percentage increase in life span),[4],134% and 82%
same,solubility,[5]; [11],< 100 µg/mL
same,ILS (percentage increase in life span),[6],24% and 17%
"O=C1C(Cl)=C(Cl)C(=O)C(Cl)=C1Cl [chloranil, tetrachlorobenzoquinone]","antitumor activity, prior testing","[8]; L1210 system, prior/literature",inactive
O=C1C(N2CC2)=C(N2CC2)C(=O)C(N2CC2)=C1N1CC1 [tetraaziridinyl derivative],ILS,"[8]; L1210 leukemia system, earlier evaluation",39%
